Results reported in US8877748B2, “Heterocyclic fused anthraquinone derivatives, manufacturing method and pharmaceutical composition using thereof” (National Defense Medical Center, priority 2012, dated 2014).

Legend:
[1] = system: ACHN; experiment: NCI one-dose screening, renal cancer ACHN; assay type: cell-based, human; conditions: 10 μM
[2] = system: TK-10; experiment: NCI one-dose screening, renal cancer TK-10; assay type: cell-based, human; conditions: 10 μM
[3] = system: 786-O; experiment: NCI one-dose screening, renal cancer 786-O; assay type: cell-based, human; conditions: 10 μM
[4] = system: OVCAR-3; experiment: NCI one-dose screening, ovarian cancer OVCAR-3; assay type: cell-based, human; conditions: 10 μM
[5] = system: COLO 205; experiment: NCI one-dose screening, colon cancer COLO 205; assay type: cell-based, human; conditions: 10 μM
[6] = system: HL-60, TB; experiment: NCI one-dose screening, leukemia HL-60, TB; assay type: cell-based, human; conditions: 10 μM
[7] = system: CCRF-CEM; experiment: NCI screening platform one-dose single concentration screening, leukemia CCRF-CEM; assay type: cell-based, human; conditions: 10 μM
[8] = system: OVCAR-4; experiment: NCI one-dose screening, ovarian cancer OVCAR-4; assay type: cell-based, human; conditions: 10 μM
[9] = system: NCI-H322M; experiment: NCI one-dose screening, non-small cell lung cancer NCI-H322M; assay type: cell-based, human; conditions: 10 μM; Non-small cell lung cancer
[10] = system: HOP-62; experiment: NCI one-dose screening, non-small cell lung cancer HOP-62; assay type: cell-based, human; conditions: 10 μM
[11] = system: KM12; experiment: NCI one-dose screening, colon cancer KM12; assay type: cell-based, human; conditions: 10 μM
[12] = system: SF-539; experiment: NCI one-dose screening, CNS cancer SF-539; assay type: cell-based, human; conditions: 10 μM
[13] = system: PRMI-8226 cell line; experiment: NCI one-dose screening, leukemia PRMI-8226; assay type: cell-based, human; conditions: 10 μM
[14] = system: T-47D; experiment: NCI one-dose screening, breast cancer T-47D; assay type: cell-based, human; conditions: 10 μM
[15] = system: MOLT-4; experiment: NCI one-dose screening, leukemia MOLT-4; assay type: cell-based, human; conditions: 10 μM
[16] = system: PC-3 prostate cancer cell line; experiment: SRB assay cell viability, PC-3 prostate cancer cell line; assay type: cell-based, human; conditions: PC-3 prostate cancer cell line, Table II prints no unit, μM printed, read-out: SRB assay: 50% inhibition of cancer cell proliferation of sample concentration (IC50) of PC-3 prostate cancer cell line
[17] = system: SF-295; experiment: NCI one-dose screening, CNS cancer SF-295; assay type: cell-based, human; conditions: 10 μM
[18] = system: SK-MEL-2; experiment: NCI one-dose screening, melanoma SK-MEL-2; assay type: cell-based, human; conditions: 10 μM
[19] = system: SK-MEL-28; experiment: NCI one-dose screening, melanoma SK-MEL-28; assay type: cell-based, human; conditions: 10 μM
[20] = system: SN12C; experiment: NCI one-dose screening, renal cancer SN12C; assay type: cell-based, human; conditions: 10 μM
[21] = system: SNB-19; experiment: NCI one-dose screening, CNS cancer SNB-19; assay type: cell-based, human; conditions: 10 μM
[22] = system: IGROV1; experiment: NCI one-dose screening, ovarian cancer IGROV1; assay type: cell-based, human; conditions: 10 μM
[23] = system: MCF7; experiment: NCI one-dose screening, breast cancer MCF7; assay type: cell-based, human; conditions: 10 μM
[24] = system: SR; experiment: NCI one-dose screening, leukemia SR; assay type: cell-based, human; conditions: 10 μM
[25] = system: LOX IMVI; experiment: NCI one-dose screening, melanoma LOX IMVI; assay type: cell-based, human; conditions: 10 μM
[26] = system: M14; experiment: NCI one-dose screening, melanoma M14; assay type: cell-based, human; conditions: 10 μM
[27] = system: HT29; experiment: NCI one-dose screening, colon cancer HT29; assay type: cell-based, human; conditions: 10 μM
[28] = system: MDA, -MB-435; experiment: NCI one-dose screening, breast cancer MDA, -MB-435; assay type: cell-based, human; conditions: 10 μM; listed under Melanoma
[29] = system: NCI-H23; experiment: NCI one-dose screening, non-small cell lung cancer NCI-H23; assay type: cell-based, human; conditions: 10 μM
[30] = system: MALME-3M; experiment: NCI one-dose screening, melanoma MALME-3M; assay type: cell-based, human; conditions: 10 μM
[31] = system: DU145; experiment: NCI one-dose screening, prostate cancer DU145; assay type: cell-based, human; conditions: 10 μM
[32] = system: SNB-75; experiment: NCI one-dose screening, CNS cancer SNB-75; assay type: cell-based, human; conditions: 10 μM
[33] = system: SK-OV-3; experiment: NCI one-dose screening, ovarian cancer SK-OV-3; assay type: cell-based, human; conditions: 10 μM
[34] = system: RXF, 393; experiment: NCI one-dose screening, renal cancer RXF, 393; assay type: cell-based, human; conditions: 10 μM
[35] = system: MDA-MB-231/ATCC; experiment: NCI one-dose screening, breast cancer MDA-MB-231/ATCC; assay type: cell-based, human; conditions: 10 μM
[36] = NCI one-dose screening, renal cancer A489; assay type: cell-based, human; conditions: 10 μM
[37] = system: K562cell line; experiment: NCI one-dose screening, leukemia K562; assay type: cell-based, human; conditions: 10 μM
[38] = system: NCI-H522; experiment: NCI one-dose screening, non-small cell lung cancer NCI-H522; assay type: cell-based, human; conditions: 10 μM
[39] = system: MDA-MB-468; experiment: NCI one-dose screening, breast cancer MDA-MB-468; assay type: cell-based, human; conditions: 10 μM
[40] = system: UACC-62; experiment: NCI one-dose screening, melanoma UACC-62; assay type: cell-based, human; conditions: 10 μM
[41] = system: HCT-15; experiment: NCI one-dose screening, colon cancer HCT-15; assay type: cell-based, human; conditions: 10 μM
[42] = system: OVCAR-5; experiment: NCI one-dose screening, ovarian cancer OVCAR-5; assay type: cell-based, human; conditions: 10 μM
[43] = system: A549/ATCC; experiment: NCI one-dose screening, non-small cell lung cancer A549/ATCC; assay type: cell-based, human; conditions: 10 μM
[44] = system: SF-268; experiment: NCI one-dose screening, CNS cancer SF-268; assay type: cell-based, human; conditions: 10 μM
[45] = system: UACC-257; experiment: NCI one-dose screening, melanoma UACC-257; assay type: cell-based, human; conditions: 10 μM
[46] = system: UO-31; experiment: NCI one-dose screening, renal cancer UO-31; assay type: cell-based, human; conditions: 10 μM
[47] = system: CAKI-1; experiment: NCI one-dose screening, renal cancer CAKI-1; assay type: cell-based, human; conditions: 10 μM
[48] = system: HS 578-T; experiment: NCI one-dose screening, breast cancer HS 578-T; assay type: cell-based, human; conditions: 10 μM; Breast cancer
[49] = system: U251; experiment: NCI one-dose screening, CNS cancer U251; assay type: cell-based, human; conditions: 10 μM
[50] = system: NCl/ADR-RES; experiment: NCI one-dose screening, breast cancer NCl/ADR-RES; assay type: cell-based, human; conditions: 10 μM; listed under Ovarian cancer
[51] = system: SK-MEL-5; experiment: NCI one-dose screening, melanoma SK-MEL-5; assay type: cell-based, human; conditions: 10 μM
[52] = system: human tumor cell lines; experiment: NCI one-dose screening, Mean / Delta / Range of growth percent over all tested cell lines; assay type: cell-based; conditions: 10 μM
[53] = system: NCI-H460; experiment: NCI one-dose screening, non-small cell lung cancer NCI-H460; assay type: cell-based, human; conditions: 10 μM
[54] = system: HCT-116; experiment: NCI one-dose screening, colon cancer HCT-116; assay type: cell-based, human; conditions: 10 μM
[55] = system: OVCAR-8; experiment: NCI one-dose screening, ovarian cancer OVCAR-8; assay type: cell-based, human; conditions: 10 μM
[56] = system: HOP-92; experiment: NCI one-dose screening, non-small cell lung cancer HOP-92; assay type: cell-based, human; conditions: 10 μM
[57] = system: HCC-2998; experiment: NCI one-dose screening, colon cancer HCC-2998; assay type: cell-based, human; conditions: 10 μM

O=C1c2ccccc2C(=O)c2c1ccc1nsnc21 [C1, Anthraquinone[2,1-c][1,2,5]thiadiazol-6,11-dione]
Growth Percent ACHN [1]: −94.31% | Growth Percent TK-10 [2]: 96.99% | Growth Percent 786-0 [3]: −25.98% | Growth Percent OVCAR-3 [4]: −15.47% | Growth Percent COLO 205 [5]: 111.54% | Growth Percent HL-60(TB) [6]: −21.77% | Growth Percent CCRF-CEM [7]: −30.81% | Growth Percent OVCAR-4 [8]: −94.43% | Growth Percent NCI-H322M [9]: 16.07% | Growth Percent HOP-62 [10]: 103.18% | Growth Percent KM12 [11]: 98.60% | Growth Percent SF-539 [12]: −47.11% | Growth Percent RPMI-8226 [13]: −27.97% | Growth Percent T-47D [14]: −45.52% | Growth Percent MOLT-4 [15]: −40.09% | IC50 [16]: 2.5 µM | Growth Percent SF-295 [17]: 126.17% | Growth Percent SK-MEL-2 [18]: −73.16% | Growth Percent SK-MEL-28 [19]: 15.47% | Growth Percent SN12C [20]: −73.27% | Growth Percent SNB-19 [21]: 78.98% | Growth Percent IGROV1 [22]: −88.34% | Growth Percent MCF7 [23]: −50.74% | Growth Percent SR [24]: 4.96% | Growth Percent LOX IMVI [25]: −50.63% | Growth Percent M14 [26]: 74.54% | Growth Percent HT29 [27]: 116.95% | Growth Percent MDA-MB-435 [28]: −87.88% | Growth Percent NCI-H23 [29]: 97.80% | Growth Percent MALME-3M [30]: −71.64% | Growth Percent DU145 [31]: 40.76% | Growth Percent SNB-75 [32]: 79.03% | Growth Percent SK-OV-3 [33]: 100.70% | Growth Percent RXF 393 [34]: 20.11% | Growth Percent MDA-MB-231/ATCC [35]: −17.33% | Growth Percent A498 [36]: 130.09% | Growth Percent K562 [37]: 49.61% | Growth Percent NCI-H522 [38]: 77.41% | Growth Percent MDA-MB-468 [39]: −73.17% | Growth Percent UACC-62 [40]: −82.32% | Growth Percent HCT-15 [41]: 1.48% | Growth Percent OVCAR-5 [42]: −20.07% | Growth Percent A549/ATCC [43]: 104.19% | Growth Percent SF-268 [44]: 16.29% | Growth Percent UACC-257 [45]: −83.07% | Growth Percent UO-31 [46]: −79.30% | Growth Percent CAKI-1 [47]: 1.97% | Growth Percent HS 578T [48]: 7.40% | Growth Percent U251 [49]: −89.26% | Growth Percent NCI/ADR-RES [50]: −2.53% | Growth Percent SK-MEL-5 [51]: 8.52% | Growth Percent Delta ([52]; delta over all cell lines): 102.68% | Growth Percent Mean ([52]; mean over all cell lines): 2.68% | Growth Percent Range ([52]; range over all cell lines): 230.09% | Growth Percent NCI-H460 [53]: 125.82% | Growth Percent HCT-116 [54]: −50.00% | Growth Percent OVCAR-8 [55]: −10.07% | Growth Percent HOP-92 [56]: −100.00% | Growth Percent HCC-2998 [57]: −0.74%
